From patent US8236761B2, “C-Met receptor regulation by angiotensin IV (AT4) receptor ligands” (Washington State University Research Foundation, priority 2006, dated 2012)
Non-standard residues stand in square brackets, D forms with d. No end group written: not given here. Nle = CCCC[C@H](N)C(=O)O

Legend:
HUVECs = assay: Extracellular matrix related gene microarray in HUVECs; assay type: cell-based, human; details: 8 days, 1 pM
Experimental: Angiotensin-like factors as candidate c-Met receptor ligands were tested for the ability to modulate expression of extracellular matrix-related proteins in human umbilical vein endothelial cells (HUVECs) by gene microarray. Briefly, HUVECs were treated for 8 days in the presence or absence of test compounds at a concentration of 1 pM; Norleual (Compound 2, SEQ ID NO:43) was used as an exemplary angiotensin-like factor. RNA was harvested and transcriptional activities of 96 extracellular matrix related genes were assessed using gene microarrays.

MDCK cells = assay: HGF stimulated MDCK cell collagen I invasion (transwell chamber); assay type: cell-based, canine; details: HGF 20 ng/ml, twelve hours
Experimental: FIG. 9A: Modulation of HGF stimulated MDCK cell collagen I invasion in the Costar transwell chamber invasion assay. 50 μl of collagen I was added to the top chamber of the transwell chamber (BD Biosciences) and gelled by adjusting it to a physiological pH with a 1:1:1 mixture of 10× Modified Eagle's Medium, 1 M sodium bicarbonate, and 0.1 M sodium hydroxide for 30 minutes at 37° C. 50,000 MDCK cells in 1% FBS DMEM were seeded into the inside of the top chamber over the gelled collagen I solution and allowed to attach for two hours at 37° C. After the cells had attached to the collagen 1, the indicated concentrations of Norleual were added to the top chamber. […] The cells that had invaded the collagen and migrated to the underside of the membrane were counted in five random fields at 40× on a light microscope. The effect of treatment was determined using the one-way ANOVA with tukey's post-hoc analysis (Prism statistical analysis software). * indicates p<0.01 vs. HGF alone treatment. […] The cells that had invaded the collagen and migrated to the underside of the membrane were counted in five random fields at 40× on a light microscope. The effect of treatment was determined using the one-way ANOVA with tukey's post-hoc analysis (Prism statistical analysis software). * indicates p<0.05 vs. HGF treatment. […]

neovascularization = assay: Disc angiogenesis assay (subcutaneous sponge disc); assay type: in vivo, Sprague Dawley rats; details: 50 μg per disc core, 14 days, rat
Experimental: FIG. 19 depicts effects on angiogenesis of angiotensin-like factors in a rat in vivo disc angiogenesis assay. Vascularization was quantified by digital image analysis of fixed and stained discs recovered from animals 14 days after subcutaneous implantation of sponge discs containing the indicated compounds.
Disc Angiogenesis Assay. […] A 2 mm core was removed from the center of each disc, saturated with 50 μg of Nle^1-AngIV (SEQ ID NO:41), Nle^1-Leu^3-Ψ(CH2NH2)^3-4-AngIV, Hexamide, or ethanol (control), air dried, then sealed using a fixative (Elvax, DuPont) to allow sustained delivery of the drug treatment into the disc and adjacent tissues. The cores were dried for 30 min, then reinserted into the sponge discs. Impermeable top and bottom covers were prepared by coating 10 mm diameter paper discs with a plexiglass coating, then glued to the top and bottom of the sponge discs, leaving only the rim of the disc available for centripetal cellular penetration. Just prior to implantation, the discs were soaked briefly in sterile saline.
Thirty-two Sprague Dawley female rats (225-275 gr) were used to evaluate four compounds for angiogenic or anti-angiogenic properties using the disc angiogenesis assay. Animals were anesthetized using sodium pentobarbital (40 mg/kg IP). The dorsum was then shaved and aseptically prepped. Each animal received four discs. Animals receiving treated discs were implanted with 2 treated discs and 2 ethanol-soaked control discs. Thus, in a group of 4 animals there were 8 treatment discs, and 8 control discs. These control discs were used to determine whether the ligand had potential systemic effects. Another group of 4 animals received only ethanol-soaked control discs (spontaneous growth controls or SGC discs) for an n=16. However, one SGC was fragmented during processing leaving an n=15.
Four 2 cm cutaneous incisions were made along the dorsum (left thoracic, right thoracolumbar, left thoracolumbar, and right lumbar), and subcutaneous pouches opened in the fascia using blunt dissection. Discs were moistened in sterile saline, inserted deep to the pouch, and the skin closed with sterile surgical staples. Animals were recovered under heat lamps until sternally recumbent, then individually housed for 14 days in an AAALAC accredited facility (water and food ad libitum; 12/12 hour light cycle).
After 14 days the animals were euthanized in a CO2 chamber and the discs were removed. […] Cellular penetration into the discs was quantified using a digital imaging system (Imaging Research Inc., St. Catharines, Ontario, Canada). The total area of the disc was calculated, as was the area containing stained cells. […]
Results. Following staining with toludine blue or Factor VIII, neovascularization was quantitated by densitometry.

In the case of “Nle-Tyr-Leu-ψ-His-Pro-Phe ([Nle]YLHPF; also: reduced peptide bond psi(CH2NH2) between Leu and His) [Norleual]”, the “Change in gene expression versus control: CD44, catenin, catenin β, catenin δ1, MMP-1, PAI-1, thrombospondin 1, integrin α-2” value (HUVECs) is reported as “at least two fold”, the “c-Met mediated collagen I invasion by MDCK cells” value (MDCK cells) is reported as “inhibition” and the “c-Met mediated collagen I invasion by MDCK cells” value (MDCK cells; listed as Compound 2) is reported as “inhibited”. The “Effect on angiogenesis in disc assay versus SGC discs” value (neovascularization) was “antagonist activity”.
